From patent US12129246B1, “Hydroquinazoline derivatives for the treatment of a disease or disorder” (Novartis AG, priority 2023, dated 2024)
Like-named read-outs stand apart in the source and are kept apart here.

Tests used:
human NPR1 = molecular target: T1, human NPR1 (Homo sapiens, UniProt P16066); assay: Cellular cGMP production assay, human NPR1 expressing CHO-K1 cells (CisBio HTRF); type: cell-based; settings: for AC50: cGMP production, 30 min at 37° C., 12-point dose-response from 30 μM; for Human NPR1 Amax (% of ANP): maximum cGMP production as percentage of the maximum cGMP produced with ANP
T1 construct: host or cells: CHO-K1
T1 sequence (P16066 33-1061): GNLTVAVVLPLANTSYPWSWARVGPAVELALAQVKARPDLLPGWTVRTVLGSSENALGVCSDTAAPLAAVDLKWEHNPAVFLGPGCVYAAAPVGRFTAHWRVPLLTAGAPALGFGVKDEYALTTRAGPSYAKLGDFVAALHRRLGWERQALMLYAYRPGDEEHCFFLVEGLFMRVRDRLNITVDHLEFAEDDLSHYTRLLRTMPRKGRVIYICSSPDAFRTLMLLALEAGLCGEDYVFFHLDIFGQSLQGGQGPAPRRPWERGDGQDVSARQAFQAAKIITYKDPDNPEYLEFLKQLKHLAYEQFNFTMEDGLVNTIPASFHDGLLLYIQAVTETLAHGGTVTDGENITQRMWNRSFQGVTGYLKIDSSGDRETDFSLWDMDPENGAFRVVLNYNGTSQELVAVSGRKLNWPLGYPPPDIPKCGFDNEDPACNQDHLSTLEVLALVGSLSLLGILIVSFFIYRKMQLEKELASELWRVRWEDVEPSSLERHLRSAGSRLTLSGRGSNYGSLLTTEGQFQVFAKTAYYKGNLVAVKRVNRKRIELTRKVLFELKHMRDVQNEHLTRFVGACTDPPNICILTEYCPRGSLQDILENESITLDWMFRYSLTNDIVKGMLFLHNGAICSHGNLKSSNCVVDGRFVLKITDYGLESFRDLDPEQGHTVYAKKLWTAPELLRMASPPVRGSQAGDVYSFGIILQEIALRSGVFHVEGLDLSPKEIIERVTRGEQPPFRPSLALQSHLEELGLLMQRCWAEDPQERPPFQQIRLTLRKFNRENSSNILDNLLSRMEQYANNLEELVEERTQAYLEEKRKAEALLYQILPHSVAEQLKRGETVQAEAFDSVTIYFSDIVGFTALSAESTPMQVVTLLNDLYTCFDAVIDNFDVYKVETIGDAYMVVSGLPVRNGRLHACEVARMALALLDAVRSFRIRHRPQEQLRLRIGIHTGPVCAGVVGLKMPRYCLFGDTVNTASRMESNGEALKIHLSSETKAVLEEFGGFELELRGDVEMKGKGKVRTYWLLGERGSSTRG
How it was run: (§1)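 Step 1: add buffer (PBS, 0.1% BSA, 1 mM IBMX) and compounds, 3-fold series from 30 μM top. Step 2: incubate 30 min, 37 °C. Step 3: lyse; HTRF reagents 1 h at RT.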

monkey NPR1 = monkey NPR1 (Macaca fascicularis, UniProt A0A7N9DBT9); assay: Cellular cGMP production assay, monkey NPR1 expressing CHO-K1 cells (CisBio HTRF); type: cell-based; settings: for Monkey NPR1 Amax (% of ANP): maximum cGMP production as percentage of the maximum cGMP produced with ANP
monkey NPR1, sequence (A0A7N9DBT9 entry or part of it): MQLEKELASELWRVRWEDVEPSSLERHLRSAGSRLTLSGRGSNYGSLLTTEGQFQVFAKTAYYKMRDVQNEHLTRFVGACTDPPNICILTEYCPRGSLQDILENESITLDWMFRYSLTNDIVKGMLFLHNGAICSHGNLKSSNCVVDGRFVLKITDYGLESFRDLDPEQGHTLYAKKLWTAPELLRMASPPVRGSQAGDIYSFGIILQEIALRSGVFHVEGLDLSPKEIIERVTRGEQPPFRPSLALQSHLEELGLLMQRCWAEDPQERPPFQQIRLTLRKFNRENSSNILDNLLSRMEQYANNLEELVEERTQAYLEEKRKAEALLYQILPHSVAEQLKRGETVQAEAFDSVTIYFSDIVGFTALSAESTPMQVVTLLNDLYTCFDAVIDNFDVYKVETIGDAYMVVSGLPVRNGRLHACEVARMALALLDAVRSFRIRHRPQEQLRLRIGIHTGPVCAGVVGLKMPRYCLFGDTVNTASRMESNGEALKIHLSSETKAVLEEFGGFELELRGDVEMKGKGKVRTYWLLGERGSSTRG
How it was run: as §1

[1] = cGMP production, monkey NPR1 CHO-K1 cells, 30 min at 37° C., 12-point dose-response from 30 μM, read-out: Monkey NPR1 AC50

`CC[C@H]([C@H]1CC[C@H](C(=O)O)CC1)N(C)c1nc2c(c(N[C@@H](CN3C4CCCC3CCC4)c3cnn(C)c3)n1)C[C@H](c1cccc(F)c1)CC2` [Compound 29, (1R,4r)-4-((R)-1-(((R)-4-(((R)-2-((1S,5S)-9-azabicyclo[3.3.1]nonan-9-yl)-1-(1-methyl-1H-pyrazol-4-yl)ethyl)amino)-6-(3-fluorophenyl)-5,6,7,8-tetrahydroquinazolin-2-yl)(methyl)amino)propyl)cyclohexane-1-carboxylic acid] was tested, and the AC50 (human NPR1) was 140 nM, the “Human NPR1 Amax (% of ANP)” value (human NPR1) was 102.911 % of ANP and the AC50 (monkey NPR1) was 137 nM. For the same compound, the “Monkey NPR1 Amax (% of ANP)” value (monkey NPR1; monkey NPR1 CHO-K1 cells) was 128.079 % of ANP.
In the case of `CC[C@@H](Nc1nc2c(c(N[C@@H](CN3CCCC4(CCOC4)C3)c3cnn(CC)c3)n1)C[C@H](c1ccccc1)CC2)[C@H]1CC[C@H](C(=O)O)CC1` (stereo partly drawn) [Compound 109, (1R,4r)-4-((1R)-1-(((6R)-4-(((1R)-1-(1-ethyl-1H-pyrazol-4-yl)-2-(2-oxa-7-azaspiro[4.5]decan-7-yl)ethyl)amino)-6-phenyl-5,6,7,8-tetrahydroquinazolin-2-yl)amino)propyl)cyclohexane-1-carboxylic acid], the AC50 (human NPR1) is reported as 412 nM, the “Human NPR1 Amax (% of ANP)” value (human NPR1) is reported as 91.101 % of ANP and the AC50 (monkey NPR1; [1]) is reported as 190 nM. The “Monkey NPR1 Amax (% of ANP)” value (monkey NPR1; monkey NPR1 CHO-K1 cells) was 115.338 % of ANP.
For `CC[C@H]([C@H]1CC[C@H](C(=O)O)CC1)N(C)c1nc2c(c(N[C@@H](CN3CCC[C@H](C)C3)c3cnn(C)c3)n1)CN(c1cccc(C#N)c1)CC2` [Compound 174, (1R,4r)-4-((R)-1-((6-(3-cyanophenyl)-4-(((R)-1-(1-methyl-1H-pyrazol-4-yl)-2-((S)-3-methylpiperidin-1-yl)ethyl)amino)-5,6,7,8-tetrahydropyrido[4,3-d]pyrimidin-2-yl)(methyl)amino)propyl)cyclohexane-1-carboxylic acid], the AC50 (human NPR1) was 14 nM, the “Human NPR1 Amax (% of ANP)” value (human NPR1) was 93.788 % of ANP and the AC50 (monkey NPR1; [1]) was 10 nM. The “Monkey NPR1 Amax (% of ANP)” value (monkey NPR1; monkey NPR1 CHO-K1 cells) was 97.462 % of ANP.
`CC[C@H]([C@H]1CC[C@H](C(=O)O)CC1)N(C)c1nc2c(c(N[C@@H](CN3CCC[C@H](OC)C3)c3cnn(C)c3)n1)C[C@H](c1ccccc1)CC2` [Compound 134, (1R,4r)-4-((R)-1-(((R)-4-(((R)-2-((S)-3-methoxypiperidin-1-yl)-1-(1-methyl-1H-pyrazol-4-yl)ethyl)amino)-6-phenyl-5,6,7,8-tetrahydroquinazolin-2-yl)(methyl)amino)propyl)cyclohexane-1-carboxylic acid] was tested, and the AC50 (human NPR1) was 792 nM, the “Human NPR1 Amax (% of ANP)” value (human NPR1) was 101.936 % of ANP and the AC50 (monkey NPR1; [1]) was 684 nM. For the same compound, the “Monkey NPR1 Amax (% of ANP)” value (monkey NPR1; monkey NPR1 CHO-K1 cells) was 96.371 % of ANP.
`CC[C@H]([C@H]1CC[C@H](C(=O)O)CC1)N(C)c1nc2c(c(N[C@@H](CN3C4CCCC3CC4)c3cn(C)nc3C)n1)C[C@H](c1cccc(F)c1)CC2` [Compound 102, (1R,4r)-4-((1R)-1-(((6R)-4-(((1R)-2-(8-azabicyclo[3.2.1]octan-8-yl)-1-(1,3-dimethyl-1H-pyrazol-4-yl)ethyl)amino)-6-(3-fluorophenyl)-5,6,7,8-tetrahydroquinazolin-2-yl)(methyl)amino)propyl)cyclohexane-1-carboxylic acid] was tested, and the AC50 (human NPR1) was 382 nM, the “Human NPR1 Amax (% of ANP)” value (human NPR1) was 96.769 % of ANP and the AC50 (monkey NPR1) was 279 nM. The “Monkey NPR1 Amax (% of ANP)” value (monkey NPR1; monkey NPR1 CHO-K1 cells) was 107.819 % of ANP.
With `CC[C@@H](Nc1nc2c(c(N[C@@H](CN3CCC[C@H](C)C3)c3cnn(C)c3)n1)C[C@](C)(c1cccc(F)c1)CC2)[C@H]1CC[C@H](C(=O)O)CC1` [Compound 2, (1R,4r)-4-((R)-1-(((R)-6-(3-fluorophenyl)-6-methyl-4-(((R)-1-(1-methyl-1H-pyrazol-4-yl)-2-((S)-3-methylpiperidin-1-yl)ethyl)amino)-5,6,7,8-tetrahydroquinazolin-2-yl)amino)propyl)cyclohexane-1-carboxylic acid] the AC50 (human NPR1) was 42 nM, the “Human NPR1 Amax (% of ANP)” value (human NPR1) was 96.935 % of ANP and the AC50 (monkey NPR1; [1]) was 44 nM. The “Monkey NPR1 Amax (% of ANP)” value (monkey NPR1; monkey NPR1 CHO-K1 cells) was 103.371 % of ANP.
`CC[C@H]([C@H]1CC[C@H](C(=O)O)CC1)N(C)c1nc2c(c(N[C@@H](CN3CCC[C@H](CF)C3)c3cnn(C)c3)n1)C[C@H](c1ccccc1)CC2` [Compound 87, (1R,4r)-4-((R)-1-(((R)-4-(((R)-2-((S)-3-(fluoromethyl)piperidin-1-yl)-1-(1-methyl-1H-pyrazol-4-yl)ethyl)amino)-6-phenyl-5,6,7,8-tetrahydroquinazolin-2-yl)(methyl)amino)propyl)cyclohexane-1-carboxylic acid] was tested, and the AC50 (human NPR1) was 292 nM, the “Human NPR1 Amax (% of ANP)” value (human NPR1) was 93.715 % of ANP and the AC50 (monkey NPR1; [1]) was 235 nM. The “Monkey NPR1 Amax (% of ANP)” value (monkey NPR1; monkey NPR1 CHO-K1 cells) was 100.104 % of ANP.
In the case of `CC[C@@H](Nc1nc2c(c(N[C@@H](CNC3CCOCC3)c3ccccc3)n1)C[C@H](c1ccccc1)CC2)[C@H]1CC[C@H](C(=O)O)CC1` [Compound 166, (1R,4r)-4-((R)-1-(((R)-6-phenyl-4-(((R)-1-phenyl-2-((tetrahydro-2H-pyran-4-yl)amino)ethyl)amino)-5,6,7,8-tetrahydroquinazolin-2-yl)amino)propyl)cyclohexane-1-carboxylic acid], the AC50 (human NPR1) is reported as 2000 nM, the “Human NPR1 Amax (% of ANP)” value (human NPR1) is reported as 101.913 % of ANP and the AC50 (monkey NPR1; [1]) is reported as 1980 nM. The “Monkey NPR1 Amax (% of ANP)” value (monkey NPR1; monkey NPR1 CHO-K1 cells) was 96.913 % of ANP.
For `CC[C@H]([C@H]1CC[C@H](C(=O)O)CC1)N(C)c1nc2c(c(N[C@@H](CN3C4CCCC3CC(O)C4)c3ccccc3)n1)C[C@H](c1ccccc1)CC2` (stereo partly drawn) [Compound 112, (1R,4r)-4-((1R)-1-(((6R)-4-(((1R)-2-((1R,5S)-3-hydroxy-9-azabicyclo[3.3.1]nonan-9-yl)-1-phenylethyl)amino)-6-phenyl-5,6,7,8-tetrahydroquinazolin-2-yl)(methyl)amino)propyl)cyclohexane-1-carboxylic acid], the AC50 (human NPR1) was 427 nM, the “Human NPR1 Amax (% of ANP)” value (human NPR1) was 90.394 % of ANP and the AC50 (monkey NPR1) was 394 nM. For the same compound, the “Monkey NPR1 Amax (% of ANP)” value (monkey NPR1; monkey NPR1 CHO-K1 cells) was 97.009 % of ANP.
In the case of `CC[C@@H](Nc1nc2c(c(N[C@@H](CN3C4CCCC3CC4)c3scnc3C)n1)C[C@H](c1cccc(F)c1)CC2)[C@H]1CC[C@H](C(=O)O)CC1` [Compound 26, (1R,4r)-4-((1R)-1-(((6R)-4-(((1S)-2-(8-azabicyclo[3.2.1]octan-8-yl)-1-(4-methylthiazol-5-yl)ethyl)amino)-6-(3-fluorophenyl)-5,6,7,8-tetrahydroquinazolin-2-yl)amino)propyl)cyclohexane-1-carboxylic acid], the AC50 (human NPR1) is reported as 131 nM, the “Human NPR1 Amax (% of ANP)” value (human NPR1) is reported as 115.149 % of ANP and the AC50 (monkey NPR1) is reported as 91 nM. The “Monkey NPR1 Amax (% of ANP)” value (monkey NPR1; monkey NPR1 CHO-K1 cells) was 102.667 % of ANP.
With `CC[C@@H](Nc1nc2c(c(N[C@@H](CN3CCCC[C@H]3C)c3cnn(CC)c3)n1)C[C@H](c1ccccc1)CC2)[C@H]1CC[C@H](C(=O)O)CC1` [Compound 64, (1R,4r)-4-((R)-1-(((R)-4-(((R)-1-(1-ethyl-1H-pyrazol-4-yl)-2-((R)-2-methylpiperidin-1-yl)ethyl)amino)-6-phenyl-5,6,7,8-tetrahydroquinazolin-2-yl)amino)propyl)cyclohexane-1-carboxylic acid] the AC50 (human NPR1) was 213 nM, the “Human NPR1 Amax (% of ANP)” value (human NPR1) was 93.045 % of ANP and the AC50 (monkey NPR1; [1]) was 175 nM. For the same compound, the “Monkey NPR1 Amax (% of ANP)” value (monkey NPR1; monkey NPR1 CHO-K1 cells) was 92.911 % of ANP.
`CC[C@@H](Nc1nc2c(c(N[C@@H](CN3CCCC3)c3ccccc3)n1)CN(c1ccccc1)CC2)[C@H]1CC[C@H](C(=O)O)CC1` [Compound 131, (1R,4r)-4-((R)-1-((6-phenyl-4-(((R)-1-phenyl-2-(pyrrolidin-1-yl)ethyl)amino)-5,6,7,8-tetrahydropyrido[4,3-d]pyrimidin-2-yl)amino)propyl)cyclohexane-1-carboxylic acid] was tested, and the AC50 (human NPR1) was 693 nM, the “Human NPR1 Amax (% of ANP)” value (human NPR1) was 101.666 % of ANP and the AC50 (monkey NPR1; [1]) was 582 nM. The “Monkey NPR1 Amax (% of ANP)” value (monkey NPR1; monkey NPR1 CHO-K1 cells) was 109.531 % of ANP.
For `CC[C@@H](Nc1nc2c(c(N[C@@H](CN3C4CCCC3CCC4)c3cnn(CC)c3)n1)C[C@H](c1ccccc1)CC2)[C@H]1CC[C@H](C(=O)O)CC1` [Compound 65, (1R,4r)-4-((R)-1-(((R)-4-(((R)-2-((1S,5S)-9-azabicyclo[3.3.1]nonan-9-yl)-1-(1-ethyl-1H-pyrazol-4-yl)ethyl)amino)-6-phenyl-5,6,7,8-tetrahydroquinazolin-2-yl)amino)propyl)cyclohexane-1-carboxylic acid], the AC50 (human NPR1) was 217 nM, the “Human NPR1 Amax (% of ANP)” value (human NPR1) was 106.664 % of ANP and the AC50 (monkey NPR1) was 128 nM. For the same compound, the “Monkey NPR1 Amax (% of ANP)” value (monkey NPR1; monkey NPR1 CHO-K1 cells) was 99.329 % of ANP.
